Test results published in US20230407243A1, “GENETIC PLATFORM TO INVESTIGATE THE FUNCTIONS OF BACTERIAL DRUG EFFLUX PUMPS” (priority 2022, published 2023).

Legend:
Format in all cases: cell-based, Escherichia coli
[1] = tested on: EKO-35 araC::mdtEF; test: MIC susceptibility profiling, efflux platform; conditions: for Fold change of MICs: EKO-35 araC::mdtEF compared to EKO-35; for Minimum Inhibitory Concentration, EKO-35 araC::mdtEF: Table 13A, non-porinated, technical duplicate
How it was run: (§1)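 MHB II broth microdilution; inoculum from 18 h LB culture, PBS-adjusted to OD600 ~1.0, then 1/2000 dilution. Compounds 2-fold titrated, duplicates, DMSO solvent control. 18 h, 37 °C, 900 rpm; background-corrected OD600 end point.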

[2] = tested on: EKO-35 araC::mdtBC; test: MIC susceptibility profiling, efflux platform; conditions: for Fold change of MICs: EKO-35 araC::mdtBC compared to EKO-35; for Minimum Inhibitory Concentration, EKO-35 araC::mdtBC: Table 13B, non-porinated, technical duplicate
How it was run: as §1

[3] = tested on: wild-type (WT) K-12-Pore; test: microbe, parasite or virus in culture; conditions: technical duplicate; for Minimum inhibitory concentration (MIC), Pore K-12: Table 10, with pore; for Minimum inhibitory concentration, K-12 (WT)-Pore: Table 14A, porinated
How it was run: (§2)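 E. coli strains carrying a genomically integrated constitutive fhuA ΔC/Δ4L pore were grown 18 h in LB at 37 °C, then diluted 1/2000 in MHB II from OD600 ~1.0. Compounds were tested in duplicate, 2-fold serial titration, for 18 h at 37 °C with shaking. MIC came from OD600 with the pre-incubation background subtracted.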

[4] = tested on: ΔtolC-Pore; test: microbe, parasite or virus in culture; conditions: technical duplicate; for Minimum inhibitory concentration (MIC), Pore ΔtolC: Table 10, with pore; for Minimum inhibitory concentration, ΔtolC-Pore: Table 14A, porinated
How it was run: as §2

[5] = tested on: E. coli ΔtolC; test: microbe, parasite or virus in culture; conditions: technical duplicate; for Minimum inhibitory concentration (MIC), ΔtolC: Table 10, without pore; for Minimum Inhibitory Concentration, ΔtolC: Table 13A, non-porinated
How it was run: as §1

[6] = tested on: E. coli EKO-35; test: microbe, parasite or virus in culture; conditions: for Fold change of MICs: EKO-35 compared to EKO-35 (reference); for Minimum inhibitory concentration (MIC), EKO-35: Table 10, without pore; for Minimum inhibitory concentration (MIC), EKO-35 / Minimum Inhibitory Concentration, EKO-35: technical duplicate; for Minimum Inhibitory Concentration, EKO-35: Table 13A, non-porinated
How it was run: as §1

[7] = tested on: wild-type E. coli K-12 str. BW25113; test: microbe, parasite or virus in culture; conditions: technical duplicate; for Minimum inhibitory concentration (MIC), K-12: Table 10, without pore; for Minimum Inhibitory Concentration, K-12: Table 13A, non-porinated
How it was run: as §1

[8] = tested on: EKO-35 araC::acrB Pore; test: MIC susceptibility profiling, porinated efflux platform; conditions: for Fold changes of MICs: EKO-35 araC::acr-B Pore compared to EKO-35-Pore; for Minimum inhibitory concentration, EKO-35 araC::acrB Pore: Table 14A, porinated, technical duplicate
How it was run: as §2

[9] = tested on: EKO-35 araC::macAB Pore; test: as above; conditions: for Fold changes of MICs: EKO-35 araC::macAB Pore compared to EKO-35-Pore; for Minimum inhibitory concentration: EKO-35 araC::macAB Pore, technical duplicate
How it was run: as §2

[10] = tested on: EKO-35 araC::mexCD Pore; test: as above; conditions: for Fold changes of MICs: EKO-35 araC::mexCD Pore compared to EKO-35-Pore; for Minimum inhibitory concentration: EKO-35 araC::mexCD Pore, technical duplicate
How it was run: as §2

[11] = tested on: EKO-35 araC::emrAB Pore; test: as above; conditions: for Fold changes of MICs: EKO-35 araC::emrAB Pore compared to EKO-35-Pore; for Minimum inhibitory concentration: EKO-35 araC::emrAB Pore, technical duplicate
How it was run: as §2

[12] = tested on: EKO-35 araC::acrEF Pore; test: as above; conditions: for Fold changes of MICs: EKO-35 araC::acrEF Pore compared to EKO-35-Pore; for Minimum inhibitory concentration, EKO-35 araC::acrEF Pore: Table 14A, porinated, technical duplicate
How it was run: as §2

[13] = tested on: EKO-35 araC::mdtBC Pore; test: as above; conditions: for Fold changes of MICs: EKO-35 araC::mdtBC Pore compared to EKO-35-Pore; for Minimum inhibitory concentration: EKO-35 araC::mdtBC Pore, technical duplicate
How it was run: as §2

[14] = tested on: EKO-35 araC::mdtEF Pore; test: as above; conditions: for Fold changes of MICs: EKO-35 araC::mdtEF Pore compared to EKO-35-Pore; for Minimum inhibitory concentration, EKO-35 araC::mdtEF Pore: Table 14A, porinated, technical duplicate
How it was run: as §2

[15] = tested on: EKO-35 araC::emrKY Pore; test: as above; conditions: for Fold changes of MICs: EKO-35 araC::emrKY Pore compared to EKO-35-Pore; for Minimum inhibitory concentration: EKO-35 araC::emrKY Pore, technical duplicate
How it was run: as §2

[16] = tested on: EKO-35 araC::acrD Pore; test: as above; conditions: for Fold changes of MICs: EKO-35 araC::acrD Pore compared to EKO-35-Pore; for Minimum inhibitory concentration, EKO-35 araC::acrD Pore: Table 14A, porinated, technical duplicate
How it was run: as §2

[17] = tested on: EKO-35 araC::acrBD408A Pore; test: as above; conditions: for Fold changes of MICs: EKO-35 araC::acrBD408A Pore compared to EKO-35-Pore; for Minimum inhibitory concentration: EKO-35 araC::acrBD408A Pore, technical duplicate
How it was run: as §2

[18] = tested on: EKO-35-Pore; test: MIC susceptibility profiling, porinated strain; conditions: for Fold changes of MICs: EKO-35-Pore compared to EKO-35-Pore (reference); for Minimum inhibitory concentration (MIC), Pore EKO-35: Table 10, with pore; for Minimum inhibitory concentration (MIC), Pore EKO-35 / Minimum inhibitory concentration, EKO-35-Pore: technical duplicate; for Minimum inhibitory concentration, EKO-35-Pore: Table 14A, porinated
How it was run: as §2

## Cn1cc(Br)c(-c2cccc(NC(=O)Nc3ccc(OC(F)(F)F)cc3)c2)n1 [compound 14]
[1]
  Fold change of MICs: 1 fold
  Minimum Inhibitory Concentration, EKO-35 araC::mdtEF: 320 µg/mL
[2]
  Fold change of MICs: 1 fold
  Minimum Inhibitory Concentration, EKO-35 araC::mdtBC: 320 µg/mL
[3]
  Minimum inhibitory concentration (MIC), Pore K-12: 320 µg/mL
  Minimum inhibitory concentration, K-12 (WT)-Pore: 320 µg/mL
[4]
  Minimum inhibitory concentration (MIC), Pore ΔtolC: 1.25 µg/mL
  Minimum inhibitory concentration, ΔtolC-Pore: 1.25 µg/mL
[5]
  Minimum inhibitory concentration (MIC), ΔtolC: 2.5 µg/mL
  Minimum Inhibitory Concentration, ΔtolC: 2.5 µg/mL
[6]
  Fold change of MICs: 1 fold
  Minimum inhibitory concentration (MIC), EKO-35: 320 µg/mL
  Minimum Inhibitory Concentration, EKO-35: 320 µg/mL
[7]
  Minimum inhibitory concentration (MIC), K-12: 320 µg/mL
  Minimum Inhibitory Concentration, K-12: 320 µg/mL
[8]
  Fold changes of MICs: 1 fold
  Minimum inhibitory concentration, EKO-35 araC::acrB Pore: 320 µg/mL
[9]
  Fold changes of MICs: 1 fold
  Minimum inhibitory concentration: 320 µg/mL
[10]
  Fold changes of MICs: 1 fold
  Minimum inhibitory concentration: 320 µg/mL
[11]
  Fold changes of MICs: 1 fold
  Minimum inhibitory concentration: 320 µg/mL
[12]
  Fold changes of MICs: 1 fold
  Minimum inhibitory concentration, EKO-35 araC::acrEF Pore: 320 µg/mL
[13]
  Fold changes of MICs: 1 fold
  Minimum inhibitory concentration: 320 µg/mL
[14]
  Fold changes of MICs: 1 fold
  Minimum inhibitory concentration, EKO-35 araC::mdtEF Pore: 320 µg/mL
[15]
  Fold changes of MICs: 1 fold
  Minimum inhibitory concentration: 320 µg/mL
[16]
  Fold changes of MICs: 1 fold
  Minimum inhibitory concentration, EKO-35 araC::acrD Pore: 320 µg/mL
[17]
  Fold changes of MICs: 1 fold
  Minimum inhibitory concentration: 320 µg/mL
[18]
  Fold changes of MICs: 1 fold
  Minimum inhibitory concentration (MIC), Pore EKO-35: 320 µg/mL
  Minimum inhibitory concentration, EKO-35-Pore: 320 µg/mL

## N#CC(=NNc1ccc(F)c(Cl)c1)C(=O)c1ccc(Cl)cc1 [compound 15]
[1]
  Fold change of MICs: 1 fold
  Minimum Inhibitory Concentration, EKO-35 araC::mdtEF: 320 µg/mL
[2]
  Fold change of MICs: 1 fold
  Minimum Inhibitory Concentration, EKO-35 araC::mdtBC: 320 µg/mL
[3]
  Minimum inhibitory concentration (MIC), Pore K-12: 320 µg/mL
  Minimum inhibitory concentration, K-12 (WT)-Pore: 320 µg/mL
[4]
  Minimum inhibitory concentration (MIC), Pore ΔtolC: 0.625 µg/mL
  Minimum inhibitory concentration, ΔtolC-Pore: 0.625 µg/mL
[5]
  Minimum inhibitory concentration (MIC), ΔtolC: 1.25 µg/mL
  Minimum Inhibitory Concentration, ΔtolC: 1.25 µg/mL
[6]
  Fold change of MICs: 1 fold
  Minimum inhibitory concentration (MIC), EKO-35: 320 µg/mL
  Minimum Inhibitory Concentration, EKO-35: 320 µg/mL
[7]
  Minimum inhibitory concentration (MIC), K-12: 320 µg/mL
  Minimum Inhibitory Concentration, K-12: 320 µg/mL
[8]
  Fold changes of MICs: 1 fold
  Minimum inhibitory concentration, EKO-35 araC::acrB Pore: 320 µg/mL
[9]
  Fold changes of MICs: 1 fold
  Minimum inhibitory concentration: 320 µg/mL
[10]
  Fold changes of MICs: 1 fold
  Minimum inhibitory concentration: 320 µg/mL
[11]
  Fold changes of MICs: 1 fold
  Minimum inhibitory concentration: 320 µg/mL
[12]
  Fold changes of MICs: 1 fold
  Minimum inhibitory concentration, EKO-35 araC::acrEF Pore: 320 µg/mL
[13]
  Fold changes of MICs: 1 fold
  Minimum inhibitory concentration: 320 µg/mL
[14]
  Fold changes of MICs: 1 fold
  Minimum inhibitory concentration, EKO-35 araC::mdtEF Pore: 320 µg/mL
[15]
  Fold changes of MICs: 1 fold
  Minimum inhibitory concentration: 320 µg/mL
[16]
  Fold changes of MICs: 1 fold
  Minimum inhibitory concentration, EKO-35 araC::acrD Pore: 320 µg/mL
[17]
  Fold changes of MICs: 1 fold
  Minimum inhibitory concentration: 320 µg/mL
[18]
  Fold changes of MICs: 1 fold
  Minimum inhibitory concentration (MIC), Pore EKO-35: 320 µg/mL
  Minimum inhibitory concentration, EKO-35-Pore: 320 µg/mL

## Nc1ccccc1SCc1nc(-c2ccc(Cl)cc2)no1 [compound 16]
[1]
  Fold change of MICs: 16 fold
  Minimum Inhibitory Concentration, EKO-35 araC::mdtEF: 160 µg/mL
[2]
  Fold change of MICs: 1 fold
  Minimum Inhibitory Concentration, EKO-35 araC::mdtBC: 5 µg/mL
[3]
  Minimum inhibitory concentration (MIC), Pore K-12: 160 µg/mL
  Minimum inhibitory concentration, K-12 (WT)-Pore: 160 µg/mL
[4]
  Minimum inhibitory concentration (MIC), Pore ΔtolC: 5 µg/mL
  Minimum inhibitory concentration, ΔtolC-Pore: 5 µg/mL
[5]
  Minimum inhibitory concentration (MIC), ΔtolC: 10 µg/mL
  Minimum Inhibitory Concentration, ΔtolC: 10 µg/mL
[6]
  Fold change of MICs: 1 fold
  Minimum inhibitory concentration (MIC), EKO-35: 10 µg/mL
  Minimum Inhibitory Concentration, EKO-35: 10 µg/mL
[6]; synthetic efflux substrates of FIG. 12
  susceptibility of EKO-35 to the compound: susceptible
[7]
  Minimum inhibitory concentration (MIC), K-12: 320 µg/mL
  Minimum Inhibitory Concentration, K-12: 320 µg/mL
[8]
  Fold changes of MICs: 32 fold
  Minimum inhibitory concentration, EKO-35 araC::acrB Pore: 160 µg/mL
[9]
  Fold changes of MICs: 1 fold
  Minimum inhibitory concentration: 5 µg/mL
[10]
  Fold changes of MICs: 16 fold
  Minimum inhibitory concentration: 80 µg/mL
[11]
  Fold changes of MICs: 16 fold
  Minimum inhibitory concentration: 80 µg/mL
[12]
  Fold changes of MICs: 16 fold
  Minimum inhibitory concentration, EKO-35 araC::acrEF Pore: 80 µg/mL
[13]
  Fold changes of MICs: 1 fold
  Minimum inhibitory concentration: 5 µg/mL
[14]
  Fold changes of MICs: 16 fold
  Minimum inhibitory concentration, EKO-35 araC::mdtEF Pore: 80 µg/mL
[15]
  Fold changes of MICs: 1 fold
  Minimum inhibitory concentration: 2.5 µg/mL
[16]
  Fold changes of MICs: 1 fold
  Minimum inhibitory concentration, EKO-35 araC::acrD Pore: 5 µg/mL
[17]
  Fold changes of MICs: 1 fold
  Minimum inhibitory concentration: 5 µg/mL
[18]
  Fold changes of MICs: 1 fold
  Minimum inhibitory concentration (MIC), Pore EKO-35: 5 µg/mL
  Minimum inhibitory concentration, EKO-35-Pore: 5 µg/mL
